Measured values as given in paper PMC5803267, “A small molecule inhibitor of Rheb selectively targets mTORC1 signaling” (Nature Communications, 2018).

Legend:
[1] = biological target: T1, recombinant human mTOR (Homo sapiens, UniProt P42345); experiment: Rheb-independent mTOR in vitro kinase assay (HotSpot, radiometric); assay type: biochemical; settings: up to a concentration of 30 µM
T1 construct: GST (N); host or cells: insect cells

[2] = biological target: Rheb (Homo sapiens, UniProt Q15382); experiment: Affinity selection mass spectrometry (ASMS) Rheb binding; settings: result in words
From the text: We used both Rheb binding and functional activity to guide the SAR optimization. Due to its high sensitivity and ability to detect weak binding ligands, STD NMR was initially used to measure Rheb binding. In addition to the benzimidazole of 1, we also explored the related indole scaffold, which allowed a wider range of functionalization. […] Therefore, we also used affinity selection mass spectrometry (ASMS) as a semi-quantitative measure of Rheb binding.

[3] = tested on: T389pS6K1 in HEK293 cells; experiment: T389pS6K1 in HEK293 cells transfected with WT or constitutively active mTOR mutants; assay type: cell-based, human; settings: HEK293, 30 µM NR1 for 90 min
Experimental: MCF-7 cells were serum-starved for 16 h and treated with compound for 90 min before cell lysis and Western blot analysis. For insulin-stimulated cells, 100 nM insulin was added 30 min before cell lysis. For EGF-stimulated cells, 100 ng mL^−1 EGF was added 10 min before cell lysis. c Rap1 activity was detected in lysates loaded in vitro with either GDP or GTPγS and treated with NR1 at the indicated concentrations. This was followed by a subsequent pulldown of GST-RalGDS-RBD. Bound Rap1 was detected by Western blot. d Evaluation of NR1 in a LAM patient-derived cell line (TRI102) under replete and serum-starved conditions. For replete conditions, TRI102 cells were treated for 90 min with compound in DMEM + 10% FBS. For serum-starved conditions, TRI102 cells were serum-starved 16 h and then treated for 90 min with compound prior to cell lysis and Western blot analysis. e HEK293 cells co-transfected with the indicated mTOR constructs and HA-GST-S6K1 were starved of amino acids or treated with NR1. […]
To further support Rheb as the target of NR1, we assessed whether NR1 could inhibit ^T389pS6K1 in cells transfected with constitutively active, Rheb-independent double mutants of mTOR originally described by Xu et al.[48]. […]

[4] = tested on: S473pAKT (mTORC2 activity) in MCF-7 cells; experiment: S473pAKT AlphaLISA assay in MCF-7 cells; assay type: cell-based, human; settings: MCF-7, replete conditions, 120 min, dose-dependent
From the text: We next evaluated the activity of NR1 in cell culture. Selective inhibition of mTORC1 in cells produces a specific signaling signature characterized by a reduction in phosphorylation of the mTORC1 substrates S6K1 and 4E-BP1 and increase in phosphorylation of AKT, catalyzed by mTORC2. This distinctive profile reflects the relief of a feedback loop where active S6K1 directly phosphorylates IRS1, resulting in the degradation of IRS1 and subsequent reduction of growth factor signaling from RTKs to downstream effectors such as AKT[1]. Conversely, reduction in ^T389pS6K1 is expected to lead to an increase in ^S473pAKT levels. We used AlphaLISA assays to detect ^T389pS6K1 and ^S473pAKT in MCF-7 cells. […]
Evaluation of NR1 in MCF-7 under replete conditions. […] The indicated phosphoproteins were detected using AlphaLISA assays for T389pS6K1 (reflecting mTORC1 activity) and S473pAKT (reflecting mTORC2 activity). […]
The compounds were added to the kinase reaction mixture by Acoustic technology (Echo550; nanoliter range) and incubated for 20 min at room temperature before the addition of 100 µM 33P-ATP. The reaction was incubated for 2 h at room temperature, and kinase activity was detected by a P81 filter- […]
AlphaLISA assays. […] The AlphaLISA protocol was performed in 384-well plates as instructed by Perkin Elmer, and the plates were read on an EnVision plate reader. […]

Rheb, sequence (Q15382 whole entry): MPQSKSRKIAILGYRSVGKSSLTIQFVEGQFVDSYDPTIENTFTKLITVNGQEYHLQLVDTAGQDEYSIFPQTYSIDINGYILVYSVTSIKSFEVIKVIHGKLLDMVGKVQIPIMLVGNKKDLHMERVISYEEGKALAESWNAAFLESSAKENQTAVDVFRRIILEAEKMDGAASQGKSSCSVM
T1 sequence (P42345 1360-2549): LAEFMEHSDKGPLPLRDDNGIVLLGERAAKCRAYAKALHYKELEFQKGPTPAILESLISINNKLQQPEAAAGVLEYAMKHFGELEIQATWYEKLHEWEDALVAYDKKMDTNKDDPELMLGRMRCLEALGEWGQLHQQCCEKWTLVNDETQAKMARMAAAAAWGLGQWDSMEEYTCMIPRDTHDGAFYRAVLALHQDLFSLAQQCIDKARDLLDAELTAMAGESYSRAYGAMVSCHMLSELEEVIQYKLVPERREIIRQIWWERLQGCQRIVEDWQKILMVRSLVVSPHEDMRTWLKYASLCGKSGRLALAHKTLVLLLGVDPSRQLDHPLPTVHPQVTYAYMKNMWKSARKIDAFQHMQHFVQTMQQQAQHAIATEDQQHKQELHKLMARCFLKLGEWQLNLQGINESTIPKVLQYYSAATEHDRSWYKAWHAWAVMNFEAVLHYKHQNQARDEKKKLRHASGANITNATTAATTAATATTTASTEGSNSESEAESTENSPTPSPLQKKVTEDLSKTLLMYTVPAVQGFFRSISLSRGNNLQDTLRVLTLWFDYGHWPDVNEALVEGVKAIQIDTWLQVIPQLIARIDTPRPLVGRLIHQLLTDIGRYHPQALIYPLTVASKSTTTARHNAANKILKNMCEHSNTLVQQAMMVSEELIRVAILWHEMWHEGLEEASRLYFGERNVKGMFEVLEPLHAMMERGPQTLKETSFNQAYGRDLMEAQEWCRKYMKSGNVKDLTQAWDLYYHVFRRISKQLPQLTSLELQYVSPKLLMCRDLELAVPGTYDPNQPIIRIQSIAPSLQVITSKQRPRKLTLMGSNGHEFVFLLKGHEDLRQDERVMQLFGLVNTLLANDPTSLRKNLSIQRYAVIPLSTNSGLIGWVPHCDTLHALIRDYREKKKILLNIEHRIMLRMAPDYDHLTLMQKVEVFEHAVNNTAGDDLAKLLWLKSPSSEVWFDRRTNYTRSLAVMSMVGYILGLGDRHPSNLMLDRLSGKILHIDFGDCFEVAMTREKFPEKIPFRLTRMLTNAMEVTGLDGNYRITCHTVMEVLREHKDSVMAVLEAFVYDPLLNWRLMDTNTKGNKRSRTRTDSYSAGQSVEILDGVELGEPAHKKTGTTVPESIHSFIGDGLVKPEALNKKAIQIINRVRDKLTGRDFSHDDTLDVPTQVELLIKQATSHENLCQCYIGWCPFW

CN(C)C(=O)c1ccc(Cn2c(C(=O)O)cc3c(Br)cc(Sc4ccc(Cl)c(Cl)c4)cc32)cc1 [NR1, 4-bromo-6-(3,4-dichlorophenylthio)-1-(4-(dimethylcarbamoyl)benzyl)-1H-indole-2-carboxylic acid]
inhibitory activity in HotSpot [1]: no inhibitory activity | Rheb binding by ASMS [2]: significant affinity | T389pS6K1 phosphorylation with Rheb-independent mTOR mutants [3]: no impact on pS6K1 | T389pS6K1 phosphorylation with vehicle or WT mTOR [3]: reduces | phosphorylation of S473pAKT [4]: increased the phosphorylation
